The text below walks through data of PMC7839234 (FASEB journal : official publication of the Federation of …, 2020).

Common to all, as to format: cell-based
Experiment [1] has as its target T1, SLC22A15 (Homo sapiens, UniProt Q8IZD6).
A further experiment has as its target T2, SLC22A4 (Homo sapiens, UniProt Q9H015).
T2 sequence (Q9H015 1-551): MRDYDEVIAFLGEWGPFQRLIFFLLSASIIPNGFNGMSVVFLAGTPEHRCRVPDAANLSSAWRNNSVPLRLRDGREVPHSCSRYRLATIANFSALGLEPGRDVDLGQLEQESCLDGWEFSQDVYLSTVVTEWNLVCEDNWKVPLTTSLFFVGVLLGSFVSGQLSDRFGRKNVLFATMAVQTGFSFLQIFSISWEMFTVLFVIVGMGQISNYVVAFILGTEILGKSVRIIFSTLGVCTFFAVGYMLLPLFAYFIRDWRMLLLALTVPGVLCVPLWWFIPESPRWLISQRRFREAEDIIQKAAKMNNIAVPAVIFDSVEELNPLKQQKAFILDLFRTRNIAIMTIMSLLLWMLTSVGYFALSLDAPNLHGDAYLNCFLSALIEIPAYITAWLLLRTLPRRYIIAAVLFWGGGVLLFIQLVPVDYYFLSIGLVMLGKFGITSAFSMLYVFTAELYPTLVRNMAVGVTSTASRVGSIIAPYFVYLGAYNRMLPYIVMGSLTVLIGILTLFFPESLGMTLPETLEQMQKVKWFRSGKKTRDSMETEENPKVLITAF
As to the kind of experiment: radiolabelled uptake in transfected HEK293 Flp-In cells.

For experiment [2], the target named is T1, SLC22A15. Described as above.

T1 sequence (Q8IZD6 whole entry): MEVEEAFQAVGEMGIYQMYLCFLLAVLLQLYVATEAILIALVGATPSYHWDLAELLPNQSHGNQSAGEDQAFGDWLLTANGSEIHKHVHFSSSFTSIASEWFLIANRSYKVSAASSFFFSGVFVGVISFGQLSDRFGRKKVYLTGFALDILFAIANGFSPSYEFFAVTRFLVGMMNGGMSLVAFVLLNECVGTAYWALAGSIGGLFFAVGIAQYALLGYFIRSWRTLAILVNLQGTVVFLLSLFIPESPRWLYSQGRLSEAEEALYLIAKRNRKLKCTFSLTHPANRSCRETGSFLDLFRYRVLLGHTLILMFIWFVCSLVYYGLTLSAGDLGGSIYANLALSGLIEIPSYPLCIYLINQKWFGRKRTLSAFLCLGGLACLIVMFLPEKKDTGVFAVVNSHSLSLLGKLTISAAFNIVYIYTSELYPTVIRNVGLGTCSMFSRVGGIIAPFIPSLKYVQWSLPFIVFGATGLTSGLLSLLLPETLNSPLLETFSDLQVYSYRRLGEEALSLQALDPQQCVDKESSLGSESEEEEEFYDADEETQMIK

Regarding `O=S(=O)(O)CCN1CCN(CCO)CC1` [HEPES, 4-(2-hydroxyethyl)-1-piperazineethanesulfonic acid], half-maximal inhibition against SLC22A15 [1] (IC50) was put at 5.8 ± 1.4 mM.

Regarding `C[N+](C)(C)[C@@H](Cc1c[nH]c(=S)[nH]1)C(=O)[O-]` [ergothioneine], the “radiolabelled uptake in transfected HEK293 Flp-In cells” value on SLC22A4 is “only SLC22A4 and SLC22A15 showed significant uptake of ergothioneine over EV cells (Fig. 3B)”.

Consider `C[N+](C)(C)CC(=O)O` [betaine], for which the “radiolabelled uptake in transfected HEK293 Flp-In cells” value at SLC22A15 [2] is “highest fold-uptake over empty vector were the zwitterions: ergothioneine, carnosine and betaine”.
